Source: publication PMC11919252 (eLife, 2025)

Legend:
[1] = test system: WT and Tac1::Calca DKO mice; settings: background statement on oxaliplatin; ref MacDonald et al., 2021; cited from earlier work
Source text: Lastly, we investigated how dual peptide deletion affected the development of allodynia symptoms, where innocuous stimuli are perceived as painful, in two mouse models of neuropathic pain ([Jensen and Finnerup, 2014]).

[2] = test system: WT and Tac1::Calca DKO mice; experiment: Oxaliplatin cold allodynia, Cold Plate; assay type: in vivo, mouse; settings: intraplantar oxaliplatin, one day after treatment, Cold Plate at 10 °C, 5 min
Source text: The plate was set to the desired temperature. A camera set up with a mirror was used for better visibility of the mouse on the hot plate. A clear cylindrical tube was placed around the hot plate to ensure the mouse cannot escape. Once the hot plate reached the set temperature, the mouse was placed on the hot plate and the top of the cylinder was covered. At the cut-off time, the mouse was taken off the hot plate and placed back in the cage. The latency to lick was scored post-hoc using the recorded videos by a blinded observer.
Chemotherapy-induced neuropathy was induced in mice by intraplantar injection of oxaliplatin into the left hind paw ([Deuis et al., 2013]; [MacDonald et al., 2021]). Oxaliplatin was made up to a dose of 80 µg in 40 µl of 5% glucose solution, due to its instability in chloride-containing saline solution. The number of nocifensive behaviors in 5 min was assessed on the Cold Plate held at 10 °C 24 hr later.

O=C1[O][Pt]2([NH][C@@H]3CCCC[C@H]3[NH]2)[O]C1=O [oxaliplatin]
Cold allodynia evoked by oxaliplatin [1]: evokes extreme cold allodynia | Pain-like behaviors on Cold Plate [2]: both DKO and WT animals displayed pronounced pain-like behaviors
